Patent publication US10112945B2, “Fused quinoline compunds as PI3K, mTOR inhibitors” (ADVENCHEN PHARMACEUTICALS, NANJING LTD., priority 2014, dated 2018)

What was measured:
mTor = biological target: T1, mTor (Homo sapiens, UniProt P42345); assay: In vitro kinase inhibition, mTor (Millipore/Merck kinases panel screening); format: biochemical; conditions: compound at 0.03 μM
T1 construct: purchased Millipore/Merck KGA
Protocol: (§1) In vitro kinase inhibition activities included Pi3k and mTor activities can be tested with Millipore/Merck KGA of Europe in their kinases panel screening. Animal antitumor activity testing can be conducted by various cancer xenograft models for a compound of formula I.
(§2) The following compounds or a pharmaceutically acceptable salt thereof, but not limited, can also be prepared similarly according to the methods described in Scheme I-Scheme II. They are also tested for the inhibitions on mTor or pi3k kinases, or tumor cell lines.

pi3K = assay: In vitro kinase inhibition, pi3K (Millipore/Merck kinases panel screening); format: biochemical; conditions: compound at 0.03 μM
Protocol: as §1, §2

Compound | activity at 0.03 µM (mTor; scaffold drawing 7 series) [%] | pi3K % activity @0.03 μM (pi3K; scaffold drawing 7 series) [%] | activity at 0.03 µM (mTor; scaffold drawing 34 series) [%] | pi3K % activity @0.03 μM (pi3K; scaffold drawing 34 series) [%] | mTor % activity @0.03 μM (mTor; scaffold drawing 7 series) [%]
FC(F)(F)c1cccc(-n2c3c4cc(-c5cccnc5)ccc4ncc3n3cnnc23)c1 [3-pyridine, H, H, 16-(3-(trifluoromethyl)phenyl)-4-(pyridin-3-yl)-8,11,13,14,16-pentaazatetracyclo-[8.6.0.0^2,7.0^11,15]hexadeca-1(10),2,4,6,8,12,14-heptaene] | 0 | 70 |  |  | 
FC(F)(F)c1cc(-n2c3c4cc(-c5cnc6ccccc6c5)ccc4ncc3n3cnnc23)ccc1Cl [3-quinoline, 4-Cl, H, 16-[4-chloro-3-(trifluoromethyl)phenyl]-4-(quinolin-3-yl)-8,11,13,14,16-pentaazatetracyclo-[8.6.0.0^2,7.0^11,15]hexadeca-1(10),2,4,6,8,12,14-heptaene] | 11 | 84 |  |  | 
FC(F)(F)c1cccc(-n2c3c4cc(-c5cnc6ccccc6c5)ccc4ncc3n3cnnc23)c1 [3-quinoline, H, H, 4-(quinolin-3yl)-16-[3-(trifluoromethyl)phenyl]-8,11,13,14,16-pentaazatetracyclo-[8.6.0.0^2,7.0^11,15]hexadeca-1(10),2,4,6,8,12,14-heptaene] | -5 | 68 |  |  | 
FC(F)(F)c1ccc(-n2c3c4cc(-c5cnc6ccccc6c5)ccc4ncc3n3cnnc23)cc1 [3-quinoline, H, H, 4-(quinolin-3yl)-16-[4-(trifluoromethyl)phenyl]-8,11,13,14,16-pentaazatetracyclo-[8.6.0.0^2,7.0^11,15]hexadeca-1(10),2,4,6,8,12,14-heptaene] |  |  | 68 | 99 | 
Nc1ccc(-c2ccc3ncc4c(c3c2)n(-c2ccc(Cl)c(C(F)(F)F)c2)c2nncn42)cn1 [5-pyridin-2-amine, 4-Cl, H, 5-{16-[4-chloro-3-(trifluoromethyl)phenyl]-8,11,13,14,16-pentaazatetracyclo-[8.6.0.0^2,7.0^11,15]hexadeca-1(10),2,4,6,8,12,14-heptaen-4-yl}pyridin-2-amine] | -19 | 38 |  |  | 
COCCNc1ccc(-c2ccc3ncc4c(c3c2)n(-c2ccc(Cl)c(C(F)(F)F)c2)c2nncn42)cn1 [5-{16-[4-chloro-3-(trifluoromethyl)phenyl]-8,11,13,14,16-pentaazatetracyclo[8.6.0.0^2,7.0^11,15]-hexadeca-1(10),2,4,6,8,12,14-heptaen-4-yl}-N-(2-methoxyethyl)pyridin-2-amine] | -5 | 87 |  |  | 
FC(F)(F)c1cc(-n2c3c4cc(-c5ccc(NCCN6CCOCC6)nc5)ccc4ncc3n3cnnc23)ccc1Cl [5-{16-[4-chloro-3-(trifluoromethyl)phenyl]-8,11,13,14,16-pentaazatetracyclo[8.6.0.0^2,7.0^11,15]-hexadeca-1(10),2,4,6,8,12,14-heptaen-4-yl}-N-[2-(morpholin-4-yl)ethyl]pyridin-2-amine] | 20 | 93 |  |  | 
FC(F)(F)c1cc(-n2c3c4cc(-c5ccc(NCCN6CCCC6)nc5)ccc4ncc3n3cnnc23)ccc1Cl [5-{16-[4-chloro-3-(trifluoromethyl)phenyl]-8,11,13,14,16-pentaazatetracyclo[8.6.0.0^2,7.0^11,15]-hexadeca-1(10),2,4,6,8,12,14-heptaen-4-yl}-N-[2-(pyrrolidin-1-yl)ethyl]pyridin-2-amine] | 15 | 98 |  |  | 
COCCNc1ccc(-c2ccc3ncc4c(c3c2)n(-c2cccc(C(F)(F)F)c2)c2nncn42)cn1 [N-(2-methoxyethyl)-5-{16-[3-(trifluoromethyl)phenyl]-8,11,13,14,16-pentaazatetracyclo-[8.6.0.0^2,7.0^11,15]-hexadeca-1(10),2,4,6,8,12,14-heptaen-4-yl}pyridin-2-amine] | -3 | 92 |  |  | 
CN1CCN(CC(=O)Nc2ccc(-c3ccc4ncc5c(c4c3)n(-c3ccc(Cl)c(C(F)(F)F)c3)c3nncn53)cn2)CC1 [N-(5-{16-[4-chloro-3-(trifluoromethyl)phenyl]-8,11,13,14,16-pentaazatetracyclo[8.6.0.0^2,7.0^11,15]-hexadeca-1(10),2,4,6,8,12,14-heptaen-4-yl}pyridin-2-yl)-2-(4-methylpiperazin-1-yl)acetamide] | -4 | 74 |  |  | 
O=C(CN1CCOCC1)Nc1ccc(-c2ccc3ncc4c(c3c2)n(-c2ccc(Cl)c(C(F)(F)F)c2)c2nncn42)cn1 [N-(5-{16-[4-chloro-3-(trifluoromethyl)phenyl]-8,11,13,14,16-pentaazatetracyclo[8.6.0.0^2,7.0^11,15]-hexadeca-1(10),2,4,6,8,12,14-heptaen-4-yl}pyridin-2-yl)-2-(morpholin-4-yl)acetamide] | 17 | 82 |  |  | 
O=C(CN1CCCC1)Nc1ccc(-c2ccc3ncc4c(c3c2)n(-c2ccc(Cl)c(C(F)(F)F)c2)c2nncn42)cn1 [N-(5-{16-[4-chloro-3-(trifluoromethyl)phenyl]-8,11,13,14,16-pentaazatetracyclo[8.6.0.0^2,7.0^11,15]-hexadeca-1(10),2,4,6,8,12,14-heptaen-4-yl}pyridin-2-yl)-2-(pyrrolidin-1-yl)acetamide] | 4 | 82 |  |  | 
FC(F)(F)c1cccc(-n2c3c4cc(-c5ccc(NCCN6CCCC6)nc5)ccc4ncc3n3cnnc23)c1 [N-[2-(pyrrolidin-1-yl)ethyl]-5-{16-[3-(trifluoromethyl)phenyl]-8,11,13,14,16-pentaazatetracyclo-[8.6.0.0^2,7.0^11,15]-hexadeca-1(10),2,4,6,8,12,14-heptaen-4-yl}pyridin-2-amine] | 4 | 101 |  |  | 
N-[2-(morpholin-4-yl)ethyl]-5-{16-[3-(trifluoromethyl)phenyl]-8,11,13,14,16-pentaazatetra-cyclo[8.6.0.0^2,7.0^11,15]hexadeca-1(10),2,4,6,8,12,14-heptaen-4-yl}pyridin-2-amine |  | 94 |  |  | 43
